# Tests used:
# KRAS G12D = KRAS G12D (Homo sapiens, UniProt P01116, G12D); test: GDP-GTP exchange assay, KRAS G12D (bodipy-GDP/GppNHp, SOS1); format: biochemical; details: bodipy-loaded KRAS G12D 2.5 nM, 4 hours incubation after GppNHp-SOS1; read-out: G12D_exchange (KRAS_G12D exchange assay IC50)
# Protocol: The inhibitor potency of the exemplified compounds was determined in a fluorescence based guanine nucleotide exchange assay, which measures the exchange of bodipy-GDP (fluorescently labeled GDP) for GppNHp (Non-hydrolyzable GTP analog) to generate the active state of KRAS in the presence of SOS1 (guanine nucleotide exchange factor). Inhibitors were serially diluted in DMSO and a volume of 0.1 μL was transferred to the wells of a black low volume 384-well plate. 5 μL/well volume of bodipy-loaded KRAS G12C diluted to 5 nM in assay buffer (25 mM Hepes pH 7.5, 50 mM NaCl, 10 mM MgCl2 and 0.01% Brij-35) was added to the plate and pre-incubated with inhibitor for 2 hours at ambient temperature. Appropriate controls (enzyme with no inhibitor or with a G12C inhibitor (AMG-510)) were included on the plate. The exchange was initiated by the addition of a 5 μL/well volume containing 1 mM GppNHp and 300 nM SOS1 in assay buffer. The 10 μL/well reaction concentration of the bodipy-loaded KRAS G12C, GppNHp, and SOS1 were 2.5 nM, 500 uM, and 150 nM, respectively. The reaction plates were incubated at ambient temperature for 2 hours, a time estimated for complete GDP-GTP exchange in the absence of inhibitor. […] Fluorescence intensities were measured on a PheraStar plate reader instrument (BMG Labtech) with excitation at 485 nm and emission at 520 nm. […]
# KRAS G12C = KRAS G12C (Homo sapiens, UniProt P01116, G12C); test: GDP-GTP exchange assay, KRAS G12C (bodipy-GDP/GppNHp, SOS1); format: biochemical; details: bodipy-loaded KRAS G12C 2.5 nM, 2 hours pre-incubation, 2 hours exchange with GppNHp and SOS1; read-out: G12C_exchange (KRAS_G12C exchange assay IC50)
# Chain of KRAS G12C (P01116 1-188 isoform P01116-2 G12C): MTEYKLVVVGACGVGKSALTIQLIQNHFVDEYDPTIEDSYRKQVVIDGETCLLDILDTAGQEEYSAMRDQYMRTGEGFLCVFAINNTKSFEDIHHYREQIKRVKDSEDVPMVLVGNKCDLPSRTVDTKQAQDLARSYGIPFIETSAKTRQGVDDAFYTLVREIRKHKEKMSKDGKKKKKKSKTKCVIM
# Protocol: The inhibitor potency of the exemplified compounds was determined in a fluorescence based guanine nucleotide exchange assay, which measures the exchange of bodipy-GDP (fluorescently labeled GDP) for GppNHp (Non-hydrolyzable GTP analog) to generate the active state of KRAS in the presence of SOS1 (guanine nucleotide exchange factor). Inhibitors were serially diluted in DMSO and a volume of 0.1 μL was transferred to the wells of a black low volume 384-well plate. 5 μL/well volume of bodipy-loaded KRAS G12C diluted to 5 nM in assay buffer (25 mM Hepes pH 7.5, 50 mM NaCl, 10 mM MgCl2 and 0.01% Brij-35) was added to the plate and pre-incubated with inhibitor for 2 hours at ambient temperature. Appropriate controls (enzyme with no inhibitor or with a G12C inhibitor (AMG-510)) were included on the plate. The exchange was initiated by the addition of a 5 μL/well volume containing 1 mM GppNHp and 300 nM SOS1 in assay buffer. The 10 μL/well reaction concentration of the bodipy-loaded KRAS G12C, GppNHp, and SOS1 were 2.5 nM, 500 uM, and 150 nM, respectively. The reaction plates were incubated at ambient temperature for 2 hours, a time estimated for complete GDP-GTP exchange in the absence of inhibitor. For the KRAS G12D and G12V mutants, similar guanine nucleotide exchange assays were used with 2.5 nM as final concentration for the bodipy loaded KRAS proteins and with 4 hours and 3 hours incubation after adding GppNHp-SOS1 mixture for G12D and G12V respectively. A cyclic peptide described to selectively bind G12D mutant (Sakamoto et al., BBRC 484.3 (2017), 605-611) or internal compounds with confirmed binding were used as positive controls in the assay plates. Fluorescence intensities were measured on a PheraStar plate reader instrument (BMG Labtech) with excitation at 485 nm and emission at 520 nm.
# Either GraphPad prism or XLfit was used to analyze the data. The IC50 values were derived by fitting the data to a four parameter logistic equation producing a sigmoidal dose-response curve with a variable Hill coefficient. Prism equation: Y=Bottom+(Top−Bottom)/(1+10^((Log IC50−X)*Hill slope)); XLfit equation: Y=(A+((B−A)/(1+((X/C)^D)))) where X is the logarithm of inhibitor concentration and Y is the response.
# [1] = tested on: MIA PaCa-2 (KRAS G12C) cells; test: Cellular pERK HTRF assay, KRAS_G12C pERK; format: cell-based; details: Homo sapiens, 4 hours incubation, HTRF phospho-ERK 1/2, read-out: G12C_pERK (KRAS_G12C pERK assay IC50)
# Protocol: MIA PaCa-2 (KRAS G12C; ATCC® CRL-1420), A427 (KRAS G12D; ATCC® HTB53), HPAF-II (KRAS G12D; ATCC® CRL-1997) and NCI-H838 (KRAS WT; ATCC® CRL-5844) cells are purchased from ATCC and maintained in RPMI 1640 media supplemented with 10% FBS (Gibco/Life Technologies). The cells are plated at 5000 cells per well (8 uL) into Greiner 384-well low volume, flat-bottom, tissue culture treated white plates and incubated overnight at 37° C., 5% CO2. The next morning, test compound stock solutions are diluted in media at 3× the final concentration, and 4 uL are added to the cells. The plate is mixed by gentle rotation for 30 seconds (250 rpm) at room temperature. The cells are incubated with the KRAS G12C and G12D compounds for 4 hours or 2 hours respectively at 37° C., 5% CO2.
# 4 uL of 4× lysis buffer with blocking reagent (1:25) (Cisbio) are added to each well and plates are rotated gently (300 rpm) for 30 minutes at room temperature. 4 uL per well of Cisbio anti Phospho-ERK 1/2 d2 is mixed with anti Phospho-ERK 1/2 Cryptate (1:1) are added to each well, mixed by rotation and incubated overnight in the dark at room temperature. Plates are read on the Pherastar plate reader at 665 nm and 620 nm wavelengths. IC50 determination is performed by fitting the curve of inhibitor percent inhibition versus the log of the inhibitor concentration using the GraphPad Prism 7 software.
# Chain of KRAS G12D (P01116 1-188 isoform P01116-2 G12D): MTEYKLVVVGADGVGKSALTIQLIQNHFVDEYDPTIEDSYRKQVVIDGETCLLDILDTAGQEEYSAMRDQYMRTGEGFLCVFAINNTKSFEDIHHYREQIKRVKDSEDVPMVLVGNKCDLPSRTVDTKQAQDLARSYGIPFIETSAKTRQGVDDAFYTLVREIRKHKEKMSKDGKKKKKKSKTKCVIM
IC50 (KRAS G12D) [nM],IC50 (KRAS G12C) [nM],IC50 [1] [nM],Structure (SMILES)
100 to 1000,–,–,"CNCCc1nc2c(N3CC(N(C)C)C3)nc3c(=O)n(-c4cc(O)cc5ccccc45)ccc3c2n1[C@H]1[C@H]2CN[C@@H]1C2 (racemic) [Example 3, 1-((1R,4R,5S)-2-azabicyclo[2.1.1]hexan-5-yl)-4-(3-(dimethylamino)azetidin-1-yl)-7-(3-hydroxynaphthalen-1-yl)-2-(2-(methylamino)ethyl)-1,7-dihydro-6H-imidazo[4,5-c][1,7]naphthyridin-6-one]"
–,≤ 100,1000 to 5000,"C=CC(=O)N1CC[C@H](n2cnc3c(N4CC(N(C)C)C4)nc4c(=O)n(-c5cc(O)cc6ccccc56)ccc4c32)C[C@H]1CC#N [Example 1, 2-((2S,4S)-1-acryloyl-4-(4-(3-(dimethylamino)azetidin-1-yl)-7-(3-hydroxynaphthalen-1-yl)-6-oxo-6,7-dihydro-1H-imidazo[4,5-c][1,7]naphthyridin-1-yl)piperidin-2-yl)acetonitrile]"
–,≤ 100,1000 to 5000,"CC#CC(=O)N1CC[C@H](n2cnc3c(N4CC(N(C)C)C4)nc4c(=O)n(-c5cc(O)cc6ccccc56)ccc4c32)C[C@H]1CC#N [Example 2, 2-((2S,4S)-1-(but-2-ynoyl)-4-(4-(3-(dimethylamino)azetidin-1-yl)-7-(3-hydroxynaphthalen-1-yl)-6-oxo-6,7-dihydro-1H-imidazo[4,5-c][1,7]naphthyridin-1-yl)piperidin-2-yl)acetonitrile]"
–,100 to 1000,–,"C=CC(=O)N1CC[C@H](n2cnc3c(N4CC(N(C)C)C4)nc4c(c32)CCN(c2cccc3ccccc23)C4)C[C@H]1CC#N [Example 4, 2-((2S,4S)-1-acryloyl-4-(4-(3-(dimethylamino)azetidin-1-yl)-7-(naphthalen-1-yl)-6,7,8,9-tetrahydro-1H-imidazo[4,5-c][1,7]naphthyridin-1-yl)piperidin-2-yl)acetonitrile]"
–,≤ 100,1000 to 5000,"C=CC(=O)N1CC[C@H](n2cnc3c(N4CC(N(C)C)C4)nc4c(c32)CCN(c2cc(O)cc3ccccc23)C4)C[C@H]1CC#N [Example 5, 2-((2S,4S)-1-acryloyl-4-(4-(3-(dimethylamino)azetidin-1-yl)-7-(3-hydroxynaphthalen-1-yl)-6,7,8,9-tetrahydro-1H-imidazo[4,5-c][1,7]naphthyridin-1-yl)piperidin-2-yl)acetonitrile]"
–,≤ 100,≤ 100,"C=CC(=O)N1CC[C@H](n2cnc3c(N4CC(N(C)C)C4)nc4c(=O)n(-c5cccc6ccccc56)c(C(F)(F)F)cc4c32)C[C@H]1CC#N [Example 6, 2-((2S,4S)-1-acryloyl-4-(4-(3-(dimethylamino)azetidin-1-yl)-7-(naphthalen-1-yl)-6-oxo-8-(trifluoromethyl)-6,7-dihydro-1H-imidazo[4,5-c][1,7]naphthyridin-1-yl)piperidin-2-yl)acetonitrile]"
–,≤ 100,≤ 100,"C=CC(=O)N1CCC(n2cnc3c(-c4cccnc4C)nc4c(=O)n(-c5cccc6ccccc56)c(C(F)(F)F)cc4c32)C[C@H]1CC#N (stereo partly drawn) [Example 7, 2-((2S)-1-acryloyl-4-(4-(2-methylpyridin-3-yl)-7-(naphthalen-1-yl)-6-oxo-8-(trifluoromethyl)-6,7-dihydro-1H-imidazo[4,5-c][1,7]naphthyridin-1-yl)piperidin-2-yl)acetonitrile]"
–,≤ 100,≤ 100,"C=CC(=O)N1CC[C@H](n2cnc3c(O[C@@H](C)[C@@H]4CCCN4C)nc4c(=O)n(-c5cccc(Cl)c5C)c(C(F)(F)F)cc4c32)C[C@H]1CC#N [Example 8, 2-((2S,4S)-1-acryloyl-4-(7-(3-chloro-2-methylphenyl)-4-((S)-1-((S)-1-methylpyrrolidin-2-yl)ethoxy)-6-oxo-8-(trifluoromethyl)-6,7-dihydro-1H-imidazo[4,5-c][1,7]naphthyridin-1-yl)piperidin-2-yl)acetonitrile]"
–,≤ 100,≤ 100,"CC#CC(=O)N1CC[C@H](n2cnc3c(O[C@@H](C)[C@@H]4CCCN4C)nc4c(=O)n(-c5cccc(Cl)c5C)c(C(F)(F)F)cc4c32)C[C@H]1CC#N [Example 9, 2-((2S,4S)-1-(but-2-ynoyl)-4-(7-(3-chloro-2-methylphenyl)-4-((S)-1-((S)-1-methylpyrrolidin-2-yl)ethoxy)-6-oxo-8-(trifluoromethyl)-6,7-dihydro-1H-imidazo[4,5-c][1,7]naphthyridin-1-yl)piperidin-2-yl)acetonitrile]"
–,≤ 100,100 to 1000,"C=C(F)C(=O)N1CC[C@H](n2cnc3c(O[C@@H](C)[C@@H]4CCCN4C)nc4c(=O)n(-c5cccc(Cl)c5C)c(C(F)(F)F)cc4c32)C[C@H]1CC#N [Example 10, 2-((2S,4S)-4-(7-(3-chloro-2-methylphenyl)-4-((S)-1-((S)-1-methylpyrrolidin-2-yl)ethoxy)-6-oxo-8-(trifluoromethyl)-6,7-dihydro-1H-imidazo[4,5-c][1,7]naphthyridin-1-yl)-1-(2-fluoroacryloyl)piperidin-2-yl)acetonitrile]"
–,≤ 100,≤ 100,"C=CC(=O)N1CC[C@H](n2nnc3c(N4CC(C)(N(C)C)C4)nc4c(=O)n(-c5cccc(Cl)c5C)c(C(F)(F)F)cc4c32)C[C@H]1CC#N [Example 11, 2-((2S,4S)-1-acryloyl-4-(7-(3-chloro-2-methylphenyl)-4-(3-(dimethylamino)-3-methylazetidin-1-yl)-6-oxo-8-(trifluoromethyl)-6,7-dihydro-1H-[1,2,3]triazolo[4,5-c][1,7]naphthyridin-1-yl)piperidin-2-yl)acetonitrile]"
–,≤ 100,≤ 100,"Cc1c(Cl)cccc1-n1c(C(F)(F)F)cc2c(nc(N3CC(C)(N(C)C)C3)c3nnn([C@H]4CCN(C(=O)/C=C/CF)[C@H](CC#N)C4)c32)c1=O [Example 12, 2-((2S,4S)-4-(7-(3-chloro-2-methylphenyl)-4-(3-(dimethylamino)-3-methylazetidin-1-yl)-6-oxo-8-(trifluoromethyl)-6,7-dihydro-1H-[1,2,3]triazolo[4,5-c][1,7]naphthyridin-1-yl)-1-((E)-4-fluorobut-2-enoyl)piperidin-2-yl)acetonitrile]"
